Reference: patent US20230285576A1, “TREATMENT OF CANCER USING A CYCLODEXTRIN-CONTAINING POLYMER-TOPOISOMERASE INHIBITOR CONJUGATE AND A PARP INHIBITOR” (ELLIPSES PHARMA LTD, priority 2020, published 2023)
Read-outs that look alike come from different tables or passages of the source.

Tests used:
HIF-1α = HIF-1α protein levels after CRLX-101 alone or combined with antiangiogenic drugs in A2780 ovarian tumour model; format: in vivo, athymic nude mice; conditions: for HIF-1Q % of Control mean + SD: CRLX-101 5 mg/kg QW × 2, n=3
[1] = system: carbonic anhydrase 9 (CA9); assay: CA9 immunostaining in HT-29 colorectal xenograft tumours; format: in vivo, nude mouse; conditions: 7 days after a single IV treatment; CRLX-101 5 mg/kg, CPT 0.5 mg/kg
From the text: Tumours were harvested 7 days after treatment and immunostained with anti-CA9 antibody. Scale bar=50 μm.

Capan-1 [2] = assay: MTS viability assay, CRLX-101 alone and with Olaparib, Capan-1 (schedule 1); format: cell-based; conditions: Homo sapiens, 72 hours, Olaparib alone
Description: (§1) The optimal seeding density for each cell line (DU145, Capan-1, Hs 766T, PANC-1, NUGC4, HEY, OVCAR3, OAW28 and NCI-H510A) will be determined prior to running the assay. Cells will be seeded in 50 μL media (in triplicate for each condition). Three 96 well flat bottom tissue culture plates will be required per cell line (See appendix I). Cells will be allowed to adhere overnight at 37° C., 5% CO2, 20% O2 before compound is added.
(§2) Day 5: Analysis of Proliferation • Remove plates from the incubator and perform a Cell Titre 96 Aqueous One Solution Cell Proliferation Assay (Promega #G3582) according to the manufacturers protocol. • Record absorbance at 490 nm using colorimetric plate reader.

PANC-1 = assay: MTS viability assay, CRLX-101 alone and with Olaparib, PANC-1; format: cell-based; conditions: Homo sapiens, 72 hours, Olaparib alone
Description: as §1, §2

NUGC4 = assay: MTS viability assay, CRLX-101 alone and with Olaparib, NUGC4; format: cell-based; conditions: Homo sapiens, NUGC-4, 72 hours, Olaparib alone, read-out: IC50 relative
Description: as §1, §2

OVCAR3 = assay: MTS viability assay, CRLX-101 alone and with Olaparib, OVCAR3; format: cell-based; conditions: Homo sapiens, OVCAR-3, 72 hours, Olaparib alone
Description: as §1, §2

NCI-H510A = assay: MTS viability assay, CRLX-101 alone and with Olaparib, NCI-H510A; format: cell-based; conditions: Homo sapiens, 72 hours, Olaparib alone, read-out: IC50 relative
Description: as §1, §2

Capan-1 [3] = assay: MTS viability assay, CRLX-101 alone and with Olaparib, Capan-1 (schedule 2); format: cell-based; conditions: Homo sapiens
Description: as §1, §2

DU145 = assay: MTS viability assay, CRLX-101 alone and with Olaparib, DU145; format: cell-based; conditions: Homo sapiens, DU-145, 72 hours, Olaparib alone
Description: as §1, §2

[4] = system: NCI-H417a small-cell lung cancer tumour; format: in vivo; conditions: wild type BRCA1 and BRCA2
Hs 766T = assay: MTS viability assay, CRLX-101 alone and with Olaparib, Hs 766T; format: cell-based; conditions: Hs766T, 72 hours, Olaparib alone, read-out: IC50 relative
Description: as §1, §2

OAW28 = assay: MTS viability assay, CRLX-101 alone and with Olaparib, OAW28; format: cell-based; conditions: Homo sapiens, OAW-28, 72 hours, Olaparib alone, read-out: IC50 relative
Description: as §1, §2

SUM159 tumours = assay: Tumour growth and tumour-initiating capacity in orthotopic SUM159 triple-negative breast cancer model; format: in vivo, mice; conditions: pre-treatment for 2 weeks
From the text: Such stimulation of CSCs could increase drug resistance and metastasis, and may be further enhanced by treatment with antiangiogenic drugs, which can increase tumour hypoxia by reducing blood flow to tumours. Inhibition of HIF-1α might therefore be beneficial to patients by reducing CSCs in tumours. […] Previously published studies have shown that Bevacizumab increases the CSC population mediated primarily by hypoxia induced up-regulation of HIF-1α. […] At the end of these 2 weeks, tumours were extracted and 100 tumour cells were implanted orthotopically into new, untreated mice.
Mice were dosed for two weeks at the dose level and frequency indicated in the legend. Tumour growth curves represent mean tumour volume and error bars represent standard deviation.

[5] = system: SKOV-3 human ovarian xenograft; conditions: CRLX-101 9 mg/kg and/or Paclitaxel 30 mg/kg, QW × 3 IV
From the text: Body weight curves are means relative to the initial body weight, with bars indicating standard deviation. Survival is indicated as the percentage of animals remaining on study because mice bearing tumours that reached a predetermined cut off size (1500 mm3) were removed from the experiment.

HIF-2α = assay: Time course of HIF-2α inhibition in xenograft tumours (western blot); format: in vivo, nude mouse; conditions: single dose; same time period
Description: Tumours were flash-frozen and HIF-1α or HIF-2α protein levels were measured via western blot analysis, quantified using infrared fluorescence detection, normalised to actin levels and calculated as a percentage of HIF protein levels in saline-treated mice.

[6] = Mus musculus, A2780, read-out: HIF-1Q % of Control mean + SD

Aflibercept: antiangiogenic drug was tested, and the “HIF-1Q % of Control mean + SD” value (HIF-1α; Aflibercept study, Aflibercept 25 mg/kg Days 1, 4, 8) was 235 ± 80%.
For `CC[C@@]1(O)C(=O)OCc2c1cc1n(c2=O)Cc2cc3ccccc3nc2-1` [CPT, 20(S)-Camptothecin], the “Inhibition of CA9 in tumours” value [1] was “not”.
With `O=C(c1cc(Cc2n[nH]c(=O)c3ccccc23)ccc1F)N1CCN(C(=O)C2CC2)CC1` [Olaparib, 4-[3-(4-cyclopropanecarbonyl-piperazine-1-carbonyl)-4-fluoro-benzyl]-2H-phthalazin-1-one] the IC50 (Capan-1 [2]; read-out: IC50 Absolute) was 40.1 µM, the IC50 (Capan-1 [2]; read-out: IC50 relative) was 5.71 µM and the IC50 (PANC-1; read-out: IC50 Absolute) was 79.2 µM. It also gave an IC50 (PANC-1; read-out: IC50 relative) of 9.26 µM, an IC50 (NUGC4) of roughly 11.5 µM and an IC50 (OVCAR3; read-out: IC50 Absolute) of 43.4 µM. The IC50 (OVCAR3; read-out: IC50 relative) was 3.03 µM, the IC50 (NCI-H510A) was 2.66 µM and the IC50 (Capan-1 [3]; CAPAN-1, read-out: IC50 relative) was 0.00546 µM. For the same compound, the IC50 (Capan-1 [3]; Capan-1 (schedule 2), Olaparib alone, read-out: IC50 Absolute) was 488 µM, the IC50 (DU145; read-out: IC50 Absolute) was 93.1 µM and the IC50 (DU145; read-out: IC50 relative) was 11.6 µM. For the same compound, the “Response of the model to monotherapy” value [4] was “relatively non-responsive”, the IC50 (Hs 766T) was 14.1 µM and the IC50 (OAW28) was roughly 8.88 µM.
For “Bevacizumab: antiangiogenic drug, anti-VEGF antibody”, the “Tumour-initiating capacity of 100 re-implanted tumour cells” value (SUM159 tumours) was “enhanced tumour-initiating capacity compared to control” and the “HIF-1Q % of Control mean + SD” value (HIF-1α; Bevacizumab study, Bevacizumab 5 mg/kg Days 1, 4, 8) was 127 ± 18%.
In the case of `CC(=O)O[C@H]1C(=O)[C@@]2(C)[C@H]([C@H](OC(=O)c3ccccc3)[C@]3(O)C[C@H](OC(=O)[C@H](O)[C@@H](NC(=O)c4ccccc4)c4ccccc4)C(C)=C1C3(C)C)[C@]1(OC(C)=O)CO[C@@H]1C[C@@H]2O` [Paclitaxel], the “CR (complete regressions)” value ([5]; N=10) is reported as 1, the “PR (partial regressions)” value ([5]; N=10) is reported as 0 and the “TFS (tumour-free survivors)” value ([5]; N=10) is reported as 1. For the same compound, the “Median TTE” value ([5]; endpoint 1500 mm3, N=10) was 42.8 days and the TGD ([5]; vs control group) was 18%.
`CNC(=O)c1cc(Oc2ccc(NC(=O)Nc3ccc(Cl)c(C(F)(F)F)c3)c(F)c2)ccn1` [Regorafenib] was tested, and the HIF-1α protein level (% of control) at 50 mg/kg (HIF-1α; [6]) was 171 ± 4%.
`CC[C@@]1(O)C(=O)OCc2c1cc1n(c2=O)Cc2cc3c(CN(C)C)c(O)ccc3nc2-1` [Topotecan] was tested, and the “Inhibition of HIF-2α, in words” value (HIF-2α) was “unable to significantly inhibit”.
In the case of `Cc1ccc(Nc2nccc(N(C)c3ccc4c(C)n(C)nc4c3)n2)cc1S(N)(=O)=O` [Pazopanib], the HIF-1α protein level (% of control) at 150 mg/kg (HIF-1α; [6]) is reported as 226 ± 127%.
